Assay results taken from patent publication US9795585B2, “Methods of using L-butylphthalide for the prevention and treatment of cerebral ischemia disease” (priority 2004, dated 2017).

Key:
[1] = system: focal cerebral ischemia in rats; assay: Memory disorder induced by focal cerebral ischemia (shuttle box, artery ligation by method of Tamura); format: in vivo, male Wistar rats; conditions: 15 and 30 mg/kg oral 15 min after operation; observed after 24 hours; vs vehicle control
Protocol: Experimental Animal: The same as Example 1. Experimental Equipment: Shuttle box. Experimental Methods: • 1. Rats were trained to acquire learning and memory; • 2. Artery ligation: Artery ligation was conducted on rats according to the method of Tamura. After 24 hours, the experiment of learning as in step (1) was repeatedly conducted on rats. • 3. Grouping and administration: the rats were divided into 9 groups, which were normal group, pseudo-operation group, ischemia control group, and groups of dl-, d-, and l-NBP (15 and 30 mg/kg). The rats were orally administered at 15 min after the operation, and the changes of latency of active and passive avoidance response were observed after 24 hours.

[2] = system: cerebral apoplexy in spontaneous hypertension rats; assay: Cerebral apoplexy in salt-loaded spontaneous hypertensive rats; format: in vivo
Protocol: Experimental Animals: spontaneous hypertensive rats of 6 weeks old. Experimental Methods: Spontaneous hypertensive rats of 6 weeks old were divided into 8 groups with 10 rats per group. 0.8 to 0.9 g per day of common salt was administered starting from week 6. […] The scores of neurological deficit and the time of death were recorded.

[3] = system: ischemic region (corpus striatum) of rats with blocked cerebral artery; assay: Focal cerebral blood flow after ligation of cerebral artery (method of Tamura); format: in vivo, Male wistar rats
Protocol: Experimental Animals: Male wistar rats.
Experimental Equipments: SXP operating microscope, 62TZ-V model high frequency electrotome, solid positioner, Diamond Electro-Tech chemical microsensor 1231, two channel physiological parameter recorder.
Experimental Methods: • (1) dl-, d-, and l-NBP (15 and 30 mg/kg) and the vehicle were orally administered to the normal rats, and the changes of cerebral blood flow at different time after the administration were measured. • (2) ligation of cerebral artery was conducted on rats according to the method of Tamura. Oral administration was performed at 10 min after the operation. The rats were divided into 9 groups, which were normal group, pseudo-operation group, vehicle control group, and groups of dl-, d-, and l-NBP (15 and 30 mg/kg).

[4] = 25 and 50 mg/kg/d oral until 3 weeks after apoplexy, dose-dependent

| Compound | times of active avoidance [1] | preventive and therapeutic effect on cerebral apoplexy (overall) ([2]; 25 and 50 mg/kg/d oral) | focal blood flow in the corpus striatum on the side of the blocked cerebral artery ([3]; 30 mg/kg oral 10 min after operation, similar increase seen) | time of the occurrence of cerebral apoplexy ([2]; 25 and 50 mg/kg/d oral from week 8, vs vehicle control) | neurological deficit after cerebral apoplexy [2, 4] | viability after the occurrence of cerebral apoplexy [2, 4] | focal blood flow in the corpus striatum on the side of the blocked cerebral artery ([3]; 15 and 30 mg/kg oral 10 min after operation, vs vehicle control, dose-dependent) |
| --- | --- | --- | --- | --- | --- | --- | --- |
| CCCCC1OC(=O)c2ccccc21 (racemic) [dl-NBP, butylphthalide] | not observed | merely had such effect at relatively high doses | no statistical significance |  |  |  |  |
| CCCC[C@@H]1OC(=O)c2ccccc21 [l-NBP, L-butylphthalide] | significantly increased |  |  | significantly delay | reduce | significantly increase | significantly increase |
